Experimental data published in US20210070748A1, “INHIBITORS OF BRUTONS TYROSINE KINASE” (Pharmacyclics LLC, priority 2015, published 2021).

Key:
Format in all cases: biochemical
[1] = biological target: EGFR (Homo sapiens, UniProt P00533); experiment: Inhibition of a panel of kinases, in vitro HotSpot kinase assay: EGFR; details: Table 15, C compounds; 1 μM ATP
Experimental: (§1) The degree of inhibition of a panel of kinases is determined using the in vitro HotSpot kinase assay (purified enzymes, ^33P-ATP, an appropriate substrate and 1 μM ATP).

[2] = biological target: T1, BTK-WT (Homo sapiens, UniProt Q06187); experiment: Btk in vitro inhibitory activity (one of Method A TR-FRET, Method B electrophoretic mobility shift, Method C radiometric filter binding); details: Table 15, C compounds; read-out: IC50 BTK-WT
T1 construct: purified from insect cells as a full-length construct containing an N-terminal 6X-His tag; His6 (N); made in house; host or cells: insect cells (baculovirus Sf21 in Method B)

[3] = biological target: T2, TXK (Homo sapiens, UniProt P42681); experiment: Inhibition of a panel of kinases, in vitro HotSpot kinase assay: TXK; details: Table 15, C compounds; 1 μM ATP
T2 sequence (P42681 1-527): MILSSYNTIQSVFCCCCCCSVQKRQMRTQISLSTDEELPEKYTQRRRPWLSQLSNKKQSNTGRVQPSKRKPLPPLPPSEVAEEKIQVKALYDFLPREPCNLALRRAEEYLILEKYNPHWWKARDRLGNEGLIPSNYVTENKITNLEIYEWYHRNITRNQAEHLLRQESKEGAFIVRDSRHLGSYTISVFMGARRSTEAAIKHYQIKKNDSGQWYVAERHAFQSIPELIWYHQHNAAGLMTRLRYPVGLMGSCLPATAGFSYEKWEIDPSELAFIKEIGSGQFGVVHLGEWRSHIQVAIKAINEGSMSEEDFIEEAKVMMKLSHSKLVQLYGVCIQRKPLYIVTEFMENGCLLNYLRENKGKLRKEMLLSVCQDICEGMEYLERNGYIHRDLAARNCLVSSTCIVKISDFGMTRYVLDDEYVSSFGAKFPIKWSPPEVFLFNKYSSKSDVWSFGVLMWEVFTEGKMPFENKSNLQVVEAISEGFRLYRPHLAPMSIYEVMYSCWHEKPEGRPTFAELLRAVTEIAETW
Experimental: as §1

[4] = biological target: T3, TEC (Homo sapiens, UniProt P42680); experiment: Inhibition of a panel of kinases, in vitro HotSpot kinase assay: TEC; details: Table 15, C compounds; 1 μM ATP
T3 sequence (P42680 1-631): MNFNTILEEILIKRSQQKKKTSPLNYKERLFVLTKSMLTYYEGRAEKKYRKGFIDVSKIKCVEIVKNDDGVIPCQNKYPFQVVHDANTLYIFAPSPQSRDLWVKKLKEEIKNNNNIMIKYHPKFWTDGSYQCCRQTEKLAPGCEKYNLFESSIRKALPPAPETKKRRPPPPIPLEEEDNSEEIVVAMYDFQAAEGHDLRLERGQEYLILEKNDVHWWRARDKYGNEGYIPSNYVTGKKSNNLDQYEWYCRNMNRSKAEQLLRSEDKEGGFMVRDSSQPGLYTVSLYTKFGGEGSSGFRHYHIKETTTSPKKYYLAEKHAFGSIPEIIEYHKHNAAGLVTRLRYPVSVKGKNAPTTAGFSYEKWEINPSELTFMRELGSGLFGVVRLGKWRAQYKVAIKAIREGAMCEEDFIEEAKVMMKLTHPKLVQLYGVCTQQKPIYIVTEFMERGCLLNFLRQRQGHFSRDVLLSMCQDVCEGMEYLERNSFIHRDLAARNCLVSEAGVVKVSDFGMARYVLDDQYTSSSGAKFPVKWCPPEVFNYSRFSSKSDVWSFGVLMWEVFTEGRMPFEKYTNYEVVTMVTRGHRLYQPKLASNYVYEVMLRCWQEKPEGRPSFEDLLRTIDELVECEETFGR
Experimental: as §1

[5] = biological target: T4, ITK (Homo sapiens, UniProt Q08881); experiment: Inhibition of a panel of kinases, in vitro HotSpot kinase assay: ITK; details: Table 15, C compounds; 1 μM ATP
T4 sequence (Q08881 1-620): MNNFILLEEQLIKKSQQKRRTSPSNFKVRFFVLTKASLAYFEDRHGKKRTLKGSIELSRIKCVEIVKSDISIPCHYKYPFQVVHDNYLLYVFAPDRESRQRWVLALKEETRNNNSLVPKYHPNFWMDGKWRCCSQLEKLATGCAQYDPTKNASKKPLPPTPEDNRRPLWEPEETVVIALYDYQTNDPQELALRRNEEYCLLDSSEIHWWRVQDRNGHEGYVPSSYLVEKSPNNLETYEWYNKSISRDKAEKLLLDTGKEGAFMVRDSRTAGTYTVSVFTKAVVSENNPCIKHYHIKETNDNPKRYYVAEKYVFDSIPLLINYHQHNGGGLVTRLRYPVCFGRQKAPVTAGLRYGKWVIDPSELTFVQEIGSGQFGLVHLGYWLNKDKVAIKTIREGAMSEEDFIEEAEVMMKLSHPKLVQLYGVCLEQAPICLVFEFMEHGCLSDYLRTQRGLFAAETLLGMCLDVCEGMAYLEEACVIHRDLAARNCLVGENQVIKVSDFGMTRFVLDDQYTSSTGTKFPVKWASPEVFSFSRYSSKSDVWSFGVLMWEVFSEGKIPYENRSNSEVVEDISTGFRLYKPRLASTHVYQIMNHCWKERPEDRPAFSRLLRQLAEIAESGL
Experimental: as §1

T1 sequence (Q06187 whole entry): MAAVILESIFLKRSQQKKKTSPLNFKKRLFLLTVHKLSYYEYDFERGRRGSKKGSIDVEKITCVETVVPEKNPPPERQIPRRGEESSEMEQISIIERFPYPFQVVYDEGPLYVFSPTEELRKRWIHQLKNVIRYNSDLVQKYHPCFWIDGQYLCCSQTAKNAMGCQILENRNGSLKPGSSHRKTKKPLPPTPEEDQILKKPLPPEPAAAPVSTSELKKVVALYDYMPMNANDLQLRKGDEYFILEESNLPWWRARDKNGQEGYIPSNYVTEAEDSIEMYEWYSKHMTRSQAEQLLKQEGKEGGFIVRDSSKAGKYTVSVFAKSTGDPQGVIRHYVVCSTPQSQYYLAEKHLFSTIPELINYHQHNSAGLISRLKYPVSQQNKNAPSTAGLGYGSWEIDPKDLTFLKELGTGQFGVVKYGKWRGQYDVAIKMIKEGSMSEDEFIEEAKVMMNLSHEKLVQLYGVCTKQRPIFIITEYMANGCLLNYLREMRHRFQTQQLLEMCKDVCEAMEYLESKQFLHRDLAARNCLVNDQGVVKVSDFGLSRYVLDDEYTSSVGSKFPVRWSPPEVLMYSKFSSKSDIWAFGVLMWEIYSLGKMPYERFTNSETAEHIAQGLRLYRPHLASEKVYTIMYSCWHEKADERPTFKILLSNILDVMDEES
Sequence of EGFR (P00533 25-1210): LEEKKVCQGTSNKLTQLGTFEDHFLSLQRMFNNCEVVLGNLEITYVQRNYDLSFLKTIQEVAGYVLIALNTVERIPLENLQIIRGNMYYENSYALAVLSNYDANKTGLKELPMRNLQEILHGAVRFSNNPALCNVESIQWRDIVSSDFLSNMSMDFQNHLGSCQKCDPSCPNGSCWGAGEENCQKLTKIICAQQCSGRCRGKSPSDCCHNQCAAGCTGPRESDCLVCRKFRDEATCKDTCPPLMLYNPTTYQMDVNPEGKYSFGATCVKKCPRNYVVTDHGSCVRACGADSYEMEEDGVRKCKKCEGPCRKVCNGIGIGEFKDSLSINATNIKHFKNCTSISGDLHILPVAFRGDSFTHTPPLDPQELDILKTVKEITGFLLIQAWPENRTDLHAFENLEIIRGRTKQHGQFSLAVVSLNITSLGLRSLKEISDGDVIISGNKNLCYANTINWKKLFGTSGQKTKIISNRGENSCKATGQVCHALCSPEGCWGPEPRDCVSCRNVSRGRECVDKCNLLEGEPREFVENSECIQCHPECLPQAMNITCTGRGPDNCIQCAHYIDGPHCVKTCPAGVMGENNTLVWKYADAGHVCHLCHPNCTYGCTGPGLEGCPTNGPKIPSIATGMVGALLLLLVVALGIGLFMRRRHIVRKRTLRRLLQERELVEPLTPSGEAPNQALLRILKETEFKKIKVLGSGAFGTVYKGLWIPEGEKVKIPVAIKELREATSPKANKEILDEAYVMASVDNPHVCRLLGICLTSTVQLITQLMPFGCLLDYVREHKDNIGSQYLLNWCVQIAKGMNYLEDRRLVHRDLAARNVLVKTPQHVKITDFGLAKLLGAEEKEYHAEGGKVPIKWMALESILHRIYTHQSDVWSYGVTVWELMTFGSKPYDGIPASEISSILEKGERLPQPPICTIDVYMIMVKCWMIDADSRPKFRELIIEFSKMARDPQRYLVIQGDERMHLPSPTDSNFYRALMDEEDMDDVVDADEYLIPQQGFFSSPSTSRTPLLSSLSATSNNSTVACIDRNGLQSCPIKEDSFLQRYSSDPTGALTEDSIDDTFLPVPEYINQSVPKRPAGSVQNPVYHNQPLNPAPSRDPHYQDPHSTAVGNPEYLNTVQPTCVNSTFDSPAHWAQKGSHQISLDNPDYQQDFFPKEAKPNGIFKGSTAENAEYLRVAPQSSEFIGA

Structure (SMILES)	IC50 [1]	IC50 [2]	IC50 [3]	IC50 [4]	IC50 [5]
C=CC(=O)N1CCC[C@@H](Nc2nnc(C(N)=O)c(Nc3ccc(-c4ncco4)cc3)n2)C1 [Example C-51, (R)-3-(1-acryloylpiperidin-3-ylamino)-5-(4-(oxazol-2-yl)phenylamino)-1,2,4-triazine-6-carboxamide]	≤ 10 nM	≤ 10 nM	≤ 10 nM	≤ 10 nM	10 to 100 nM
C=CC(=O)N1CCC[C@@H](Nc2nnc(C(N)=O)c(Nc3ccc(C4(C#N)CCCC4)cc3)n2)C1 [Example C-58, (R)-3-(1-acryloylpiperidin-3-ylamino)-5-(4-(1-cyanocyclopentyl)phenylamino)-1,2,4-triazine-6-carboxamide]	≤ 10 nM	≤ 10 nM	≤ 10 nM	≤ 10 nM	≤ 10 nM
C=CC(=O)N1CCC[C@@H](Nc2nnc(C(N)=O)c(Nc3ccc(S(C)(=O)=O)cc3)n2)C1 [Example C-59, (R)-3-(1-acryloylpiperidin-3-ylamino)-5-(4-(methylsulfonyl)phenyl-amino)-1,2,4-triazine-6-carboxamide]	≤ 10 nM	≤ 10 nM	≤ 10 nM	≤ 10 nM	≤ 10 nM
C=CC(=O)N1CCC[C@@H](Nc2nnc(C(N)=O)c(Nc3ccc(I)cc3)n2)C1 [Example C-62, (R)-3-(1-acryloylpiperidin-3-ylamino)-5-(4-iodophenylamino)-1,2,4-triazine-6-carboxamide]		≤ 10 nM	≤ 10 nM	≤ 10 nM	10 to 100 nM
C=CC(=O)N1CCC[C@@H](Nc2nnc(C(N)=O)c(Nc3ccc4ncsc4c3)n2)C1 [Example C-63, (R)-3-(1-acryloylpiperidin-3-ylamino)-5-(benzo[d]thiazol-6-ylamino)-1,2,4-triazine-6-carboxamide]		≤ 10 nM	≤ 10 nM	≤ 10 nM	≤ 10 nM
C=CC(=O)N1CCC[C@@H](Nc2nnc(C(N)=O)c(Nc3ccc(Cn4cncn4)cc3)n2)C1 [Example C-64, (R)-5-(4-((1H-1,2,4-triazol-1-yl)methyl)phenyl-amino)-3-(1-acryloylpiperidin-3-ylamino)-1,2,4-triazine-6-carboxamide]		≤ 10 nM	≤ 10 nM	≤ 10 nM	≤ 10 nM
C=CC(=O)N1CC[C@@H](N(C)c2cnc(C(N)=O)c(Nc3ccc(C4(C)CCN(C5CC5)CC4)cc3)n2)C1 [Example C-65, (R)-5-((1-acryloylpyrrolidin-3-yl)(methyl)amino)-3-(4-(1-cyclopropyl-4-methylpiperidin-4-yl)phenylamino) pyrazine-2-carboxamide]		≤ 10 nM	≤ 10 nM	≤ 10 nM	≤ 10 nM
C=CC(=O)N1CC[C@@H](N(C)c2cnc(C(N)=O)c(Nc3ccc(C4(C)CCN(C5CCCC5)CC4)cc3)n2)C1 [Example C-67, (R)-5-((1-acryloylpyrrolidin-3-yl)(methyl)amino)-3-(4-(1-cyclopentyl-4-methylpiperidin-4-yl)phenylamino)pyrazine-2-carboxamide]		≤ 10 nM	> 10000 nM	≤ 10 nM	≤ 10 nM
C=CC(=O)N1CCC[C@@H](Nc2nnc(C(N)=O)c(Nc3cncc(F)c3)n2)C1 [Example C-69, (R)-3-(1-acryloylpiperidin-3-ylamino)-5-(5-fluoropyridin-3-ylamino)-1,2,4-triazine-6-carboxamide]		≤ 10 nM	≤ 10 nM	≤ 10 nM	100 to 1000 nM
C=CC(=O)N1CCC[C@@H](Nc2nnc(C(N)=O)c(Nc3cnc4ccccc4c3)n2)C1 [Example C-70, (R)-3-(1-acryloylpiperidin-3-ylamino)-5-(quinolin-3-ylamino)-1,2,4-triazine-6-carboxamide]		≤ 10 nM	≤ 10 nM	≤ 10 nM	10 to 100 nM
C=CC(=O)N1CCC[C@@H](Nc2nnc(C(N)=O)c(Nc3cccc(-c4ncccn4)c3)n2)C1 [Example C-71, (R)-3-(1-acryloylpiperidin-3-ylamino)-5-(3-(pyrimidin-2-yl)phenylamino)-1,2,4-triazine-6-carboxamide]	10 to 100 nM	≤ 10 nM	≤ 10 nM	≤ 10 nM	10 to 100 nM
C=CC(=O)N1CCC[C@@H](Nc2nnc(C(N)=O)c(Nc3ccc(CN(C(=O)OCc4ccccc4)[C@@H](C)C(C)(C)C)cc3)n2)C1 [Example C-72, benzyl 4-(3-((R)-1-acryloylpiperidin-3-ylamino)-6-carbamoyl-1,2,4-triazin-5-ylamino)benzyl((S)-3,3-dimethylbutan-2-yl)carbamate]		≤ 10 nM	10 to 100 nM	≤ 10 nM	10 to 100 nM
C=CC(=O)N1CCC[C@@H](Nc2nnc(C(N)=O)c(Nc3cccc(-n4nccn4)c3)n2)C1 [Example C-75, (R)-5-(3-(2H-1,2,3-triazol-2-yl)phenylamino)-3-(1-acryloylpiperidin-3-ylamino)-1,2,4-triazine-6-carboxamide]	10 to 100 nM	≤ 10 nM	≤ 10 nM	≤ 10 nM	10 to 100 nM
C=CC(=O)N1CCC[C@@H](Nc2nnc(C(N)=O)c(Nc3cccc(-c4ncco4)c3)n2)C1 [Example C-79, (R)-3-(1-acryloylpiperidin-3-ylamino)-5-(3-(oxazol-2-yl)phenylamino)-1,2,4-triazine-6-carboxamide]		≤ 10 nM	≤ 10 nM	≤ 10 nM	10 to 100 nM
C=CC(=O)N1CCC[C@@H](Nc2nnc(C(N)=O)c(Nc3ccc4c(cnn4CC)c3)n2)C1 [Example C-80, (R)-3-(1-acryloylpiperidin-3-ylamino)-5-(1-ethyl-1H-indazol-5-ylamino)-1,2,4-triazine-6-carboxamide]		≤ 10 nM	≤ 10 nM	≤ 10 nM	≤ 10 nM
C=CC(=O)N1CCC[C@@H](Nc2nnc(C(N)=O)c(Nc3ccc(-n4nccn4)cc3)n2)C1 [Example C-81, (R)-5-(4-(2H-1,2,3-triazol-2-yl)phenylamino)-3-(1-acryloylpiperidin-3-ylamino)-1,2,4-triazine-6-carboxamide]		≤ 10 nM	≤ 10 nM	≤ 10 nM	10 to 100 nM
C=CC(=O)N1CCC[C@@H](Nc2nnc(C(N)=O)c(Nc3ccc4ncccc4c3)n2)C1 [Example C-82, (R)-3-(1-acryloylpiperidin-3-ylamino)-5-(quinolin-6-ylamino)-1,2,4-triazine-6-carboxamide]		≤ 10 nM	≤ 10 nM	≤ 10 nM	≤ 10 nM
C=CC(=O)N1CCC[C@@H](Nc2nnc(C(N)=O)c(Nc3ccc(-n4cncn4)cc3)n2)C1 [Example C-83, (R)-5-(4-(1H-1,2,4-triazol-1-yl)phenylamino)-3-(1-acryloylpiperidin-3-ylamino)-1,2,4-triazine-6-carboxamide]		≤ 10 nM	≤ 10 nM	≤ 10 nM	10 to 100 nM
